Measured values published in patent US20200113853A1, “GAMMA-HYDROXYBUTYRATE COMPOSITIONS AND THEIR USE FOR THE TREATMENT OF DISORDERS” (Jazz Pharmaceuticals Ireland Limited, priority 2017, published 2020).

Columns and labels:
[1] = Maximum solubility of GHB as a function of pH of the aqueous medium; format: physicochemical
Experimental: It will be understood that the maximum solubility of GHB is affected by the pH of the aqueous medium. For example, at about pH 4, the maximum amount of Na⋅GHB that can be dissolved is about 450 mg/mL.

[2] = 2.25 g and 4.45 g doses, relative to IV administration; cited from earlier work
[3] = generally considered; Yu et al.; cited from earlier work

SMILES: O=C([O-])CCCO.[Na+] [sodium oxybate, sodium gamma-hydroxybutyrate]
- maximum amount that can be dissolved ([1]; at about pH 4, aqueous medium): about 450 mg/mL
- absolute bioavailability [2]: 88%
- solubility class [3]: high solubility

SMILES: O=C(O)CCCO [GHB, gamma-hydroxybutyrate]
- minimal pH that will dissolve 750 mg/mL GHB ([1]; 750 mg/mL): ~6.8
